# Reference: US20150051191A1, “TREATMENT OF ALCOHOLISM USING IBUDILAST” (MEDICINOVA, INC., priority 2013, published 2015)
# What was measured:
# [1] = tested on: C57BL/6J mice; test: mouse model of ethanol dependence, chronic intermittent ethanol (CIE) exposure; assay type: in vivo; settings: for ethanol intake of alcohol dependent mice compared with control group counterparts / reduction of ethanol intake, alcohol dependent versus control mice: Test Cycle 9; for ethanol consumption relative to vehicle: Test Cycle 8
# Description: Briefly, mice were divided into test (ethanol dependent) and control (non-ethanol dependent) groups. Mice in the former group were exposed to chronic intermittent ethanol (CIE) vapor (16 hr/day×4 days), and then forced to abstain from alcohol for 72 hours. Mice were then permitted access to ethanol for 2 h/day for a 5-day test period. This pattern of weekly CIE exposures followed by 5-day test periods was repeated for 9 cycles. Mice in the control group were treated in the same manner, except these animals were exposed to air rather than ethanol vapors. Mice from both groups were further divided into four sub-groups with animals receiving 0 mg/Kg, 3 mg/Kg, 6 mg/Kg or 12 mg/Kg dose of ibudilast. In a separate study, adult male C57BL/6J mice were used to evaluate ibudilast as a therapeutic for the treatment of alcohol dependence. Two groups of mice were used for the study. Mice in the first group were trained to drink ethanol using a 2 h/day free-choice (15% v/v ethanol) drinking procedure (ethanol dependent (EtOH) mice), while mice in the second group were provided water and served a control (ethanol nondependent (CTL)) mice. Both the ethanol dependent and ethanol non-dependent groups had equal number of mice (N=37-38/group). Mice in the alcohol dependent group were then exposed to chronic intermittent ethanol (CIE) vapors for 16 hr/day over four days. After a 72 hours forced abstinence period, the ethanol dependent mice were again permitted access to ethanol for 2 hours each day over a 5 consecutive test days. This pattern of chronic intermittent ethanol vapor exposure for four consecutive days followed by forced abstinence and a five day ethanol access test period was repeated for 9 cycles. […] Both control and ethanol dependent mice received subcutaneous (s.c.) injections of the vehicle at 9 hours and 1 hour prior to the start of daily drinking sessions during Test Cycles 4, 5 and 6 to acclimate the animals to handling and administration of injections. At the end of test cycle 6, mice in the ethanol dependent group and the control group were separated into four sub-groups with animals receiving one of four doses of ibudilast—0 mg/Kg, 3 mg/Kg, 6 mg/Kg or 12 mg/Kg during Test Cycles 7 and 8. Each sub-group contained 9-10 mice (N=9-10/group). The dose of ibudilast was increased during Test Cycle 9 with ethanol dependent and control mice receiving one of the following four doses of ibudilast—0 mg/Kg, 6 mg/Kg, 12 mg/Kg, or 18 mg/Kg. Thus, mice previously receiving a dose of 3 mg were administered ibudilast at a dose of 18 mg/Kg during Test Cycle 9.
# [2] = tested on: high-alcohol-drinking (HAD1) rats; test: voluntary ethanol consumption in high-alcohol-drinking (HAD1) rats; assay type: in vivo, rat
# Description: (§1) The ability of ibudilast (MN-166) to decrease voluntary ethanol consumption, under blind testing conditions, in selectively-bred alcohol-preferring (P) and high-alcohol-drinking (HAD1) rats and in a mouse model of ethanol dependence was examined.
# (§2) To perform the study, adult male P and HAD1 rats were randomly assigned to receive one of the following four doses of ibudilast—0 mg/Kg, 3 mg/Kg, 6 mg/Kg, or 9 mg/Kg with eight rats assigned to each dose. Each dosing group was balanced to average a 2 h/day ethanol (15% v/v) intake. Water was concurrently available to the rats and Mazola corn oil was used as the vehicle.
# (§3) The study was divided into four test phases. In the maintenance test phase rats in the treatment group were injected ibudilast subcutaneously (2 mL/kg s.c.), using standard solutions that deliver 3 mg/Kg, 6 mg/Kg or 9 mg/Kg of ibudilast, 60 min before each ethanol test session and the same dose of ibudilast was administered subcutaneously to the rats 8 hours later. Rats in the control group, however, are administered 2 mL/Kg Mazola corn oil subcutaneously. This protocol was carried out for 4 consecutive days. Following the maintenance test phase, is a two week no drug recovery phase during which rats are permitted access to ethanol and the amount of ethanol consumed by the rats was measured.
# (§4) The recovery phase is followed by a two week forced ethanol abstinence phase. Following forced abstinence, the effects of ibudilast on ethanol drinking were examined by re-introducing ethanol to rats for a period of 5 consecutive days (i.e., the Relapse Test phase). Each animal received the same dose of ibudilast during maintenance and relapse test phases.
# [3] = tested on: alcohol-preferring (P) rats; test: voluntary ethanol consumption in alcohol-preferring (P) rats; assay type: in vivo, rat; settings: for ethanol drinking relative to controls: Relapse Test phase, p<0.05
# Description: as §1, §2, §3, §4
# [4] = in vivo; cited from earlier work
# [5] = 4-day maintenance test-phase, each dose (3, 6, 9 mg/Kg), p<=0.001
# [6] = 5-day Relapse Test phase after two week forced abstinence
# [7] = especially at the 9 mg/Kg dose, effect diminished over the 5-day test phase
# [8] = maintenance test phase, 4 days, ibudilast s.c. 60 min before session and 8 hours later, 2 h/day ethanol 15% v/v
# [9] = relapse test phase, data not shown
smiles,measurement,setting,value
"CC(C)C(=O)c1c(C(C)C)nn2ccccc12 [ibudilast, Ibudilast]",ethanol intake of alcohol dependent mice compared with control group counterparts,"[1]; 6 mg ibudilast, p<0.05",consumed significantly more ethanol
same,ethanol intake of alcohol dependent mice compared with control group counterparts,[1]; 12 mg/Kg,no significant difference in ethanol intake
same,"reduction of ethanol intake, alcohol dependent versus control mice",[1]; 12 mg/Kg,more effective at reducing ethanol intake in alcohol dependent mice than control mice
same,ethanol intake of alcohol dependent mice compared with control group counterparts,[1]; 18 mg/Kg,no significant difference in ethanol intake
same,"reduction of ethanol intake, alcohol dependent versus control mice",[1]; 18 mg/Kg,more effective at reducing ethanol intake in alcohol dependent mice than control mice
same,ethanol intake,"[1]; alcohol dependent mice, 12 mg/Kg s.c., Test Cycle 7 (implied, FIG. 2)",reduced ethanol in alcohol dependent mice
same,ethanol consumption relative to vehicle,"[1]; alcohol dependent mice, 12 mg/Kg, p<0.05",reduced ethanol consumption to a greater extent
same,ethanol intake of test (ethanol dependent) mice relative to control group levels,[1]; at the higher doses,below those for mice in the control group
same,ethanol consumption relative to vehicle,"[1]; control (CTL) mice, 12 mg/Kg, p<0.05",reduced ethanol consumption to a greater extent
same,ethanol intake relative to vehicle-injected controls,[2]; [5],reduced ethanol intake
same,reduction of ethanol intake,[2]; [6],about 50%
same,ethanol intake compared to controls,"[2]; Relapse Test phase, each test dose, p<0.05",reduce ethanol intake compared to controls
same,24-hour water intake,[2]; especially at the 9 mg/Kg dose,not water intake
same,24-hour food intake,[2]; [7],transitory reductions in 24-hour food intake
same,reduction of ethanol intake,[2]; [8],approximately 50%
same,Dose x Day interaction of reduced ethanol intake,[2]; [9],most robust on the first day
same,ethanol intake relative to vehicle-injected controls,[3]; [5],reduced ethanol intake
same,reduction of ethanol intake,[3]; [6],about 50%
same,ethanol drinking relative to controls,[3]; 6 mg/Kg,significantly reducing ethanol drinking
same,ethanol drinking relative to controls,[3]; 9 mg/Kg,significantly reducing ethanol drinking
same,24-hour water intake,[3]; especially at the 9 mg/Kg dose,not water intake
same,24-hour food intake,[3]; [7],transitory reductions in 24-hour food intake
same,reduction of ethanol intake,[3]; [8],approximately 50%
same,Dose x Day interaction of reduced ethanol intake,[3]; [9],most robust on the first day
CC[C@@H](C(N)=O)N1CCCC1=O [levatiracetam],selective reduction of ethanol drinking,[4],do not selectively reduce ethanol drinking
OCCOCCN1CCN(C2=Nc3ccccc3Sc3ccccc32)CC1 [quetiapine],selective reduction of ethanol drinking,[4],do not selectively reduce ethanol drinking
